Test: Stability of polymorphic forms towards relative humidity
Assay type: physicochemical
Conditions: for stability at low relative humidity: relative humidity below 40%, temperatures between 15 and 30° C.
Procedure: Changes in humidity have less impact on the valsartan disodium form 2 as compared to the prior art form 1. […] By using valsartan disodium form 2 and by preparing the composition in an environment with relative humidity below 40%, at temperatures between 15 and 30° C., formation of the co-crystal is completely avoided. Any polymorphic form of sacubitril sodium can be used in accordance with the present invention. Preferably, the polymorphic form of sacubitril sodium is, like valsartan disodium form 2, very stable at relative humidity below […], at temperatures between 15 and 30° C. Particularly preferred polymorphic forms of sacubitril sodium to be used in a composition comprising a physical mixture with valsartan disodium form 2 are sacubitril sodium form 1 and form 2. Sacubitril sodium form 1 has an X-ray powder diffraction pattern comprising characteristic peaks at the following 2 theta (±0.2) angles: 3.14°, 6.25°, 11.97°, 12.73°, 13.78°, 16.50°, 18.35°, 19.93°, 21.56°, 23.75°, 26.20°, measured using a Cu Kα radiation. Sacubitril sodium form 2 has an X-ray powder diffraction pattern comprising characteristic peaks at the following 2 theta (±0.2) angles: 5.26°, 10.52°, 10.92°, 14.78°, 16.96°, 17.17°, 17.51°, 19.92°, 20.40°, 20.81°, 22.23°, measured using a Cu Kα radiation. […] The most preferred polymorphic form of sacubitril sodium to be used with valsartan disodium form 2 in a composition in accordance with the present invention is form 1.

stability at low relative humidity | impact of changes in humidity compared with prior art form 1 | stability compared with prior art form 1 (example 11 of WO2002006253) | Structure (SMILES)
stable compounds |  |  | CCOC(=O)[C@H](C)C[C@@H](Cc1ccc(-c2ccccc2)cc1)NC(=O)CCC(=O)O [Sacubitril sodium form 1, sacubitril sodium]
particularly stable | less impact | more stable | CCCCC(=O)N(Cc1ccc(-c2ccccc2-c2nnn[nH]2)cc1)[C@H](C(=O)O)C(C)C [valsartan disodium form 2, valsartan disodium]

— patent US10588892B2, “Pharmaceutical composition comprising sacubitril and valsartan” (priority 2017, dated 2020)
